Test results: patent US6737383B1, “Herbicidal oxadiazolidines” (priority 1999, dated 2004)

Tests used:
purple nutsedge = assay: Test B pre/postemergence purple nutsedge; assay type: in vivo, Cyperus rotundus
Method in brief: (§1)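 Response is a visual 0-to-10 score relative to untreated plants, where 0 means no effect and 10 means complete control, taken twelve to sixteen days after application. Treatments went onto soil at planting and onto foliage of 1- to 4-leaf plants, using a surfactant-containing non-phytotoxic solvent.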

soybean = assay: Test B pre/postemergence soybean; assay type: in vivo, Glycine max
Method in brief: as §1

bedstraw = assay: Test B pre/postemergence bedstraw; assay type: in vivo, Galium aparine; conditions: Preemergence
Method in brief: as §1

giant foxtail = assay: Test B pre/postemergence giant foxtail; assay type: in vivo, Setaria faberii
Method in brief: as §1

surinam grass = assay: Test B pre/postemergence surinam grass; assay type: in vivo, Brachiaria decumbens
Method in brief: as §1

wheat = assay: Test B pre/postemergence wheat; assay type: in vivo, Triticum aestivum
Method in brief: as §1

sugar beet = assay: Test B pre/postemergence sugar beet; assay type: in vivo, Beta vulgaris
Method in brief: as §1

rape = assay: Test B pre/postemergence rape; assay type: in vivo, Brassica napus
Method in brief: as §1

pigweed = assay: Test B pre/postemergence pigweed; assay type: in vivo, Amaranthus retroflexus
Method in brief: as §1

morningglory = assay: Test B pre/postemergence morningglory; assay type: in vivo, Ipomoea hederacea
Method in brief: as §1

corn = assay: Test B pre/postemergence corn; assay type: in vivo, Zea mays
Method in brief: as §1

wild oat = assay: Test B pre/postemergence wild oat; assay type: in vivo, Avena fatua
Method in brief: as §1

velvetleaf = assay: Test B pre/postemergence velvetleaf; assay type: in vivo, Abutilon theophrasti
Method in brief: as §1

crabgrass = assay: Test B pre/postemergence crabgrass; assay type: in vivo, Digitaria sanguinalis
Method in brief: as §1

blackgrass = assay: Test B pre/postemergence blackgrass; assay type: in vivo, Alopecurus myosuroides
Method in brief: as §1

cocklebur = assay: Test B pre/postemergence cocklebur; assay type: in vivo, Xanthium strumarium
Method in brief: as §1

[1] = Postemergence, Rate 62 g/ha, scale 0 to 10, 0 is no effect, 10 is complete control
[2] = Postemergence, Rate 125 g/ha, scale of 0 to 10 where 0 is no effect and 10 is complete control
[3] = Preemergence, Rate 125 g/ha, scale of 0 to 10 where 0 is no effect and 10 is complete control
[4] = Preemergence, Rate 250 g/ha, scale 0 (no effect) to 10 (complete control)
[5] = Rate 62 g/ha, Preemergence, scale 0 to 10
[6] = Rate 250 g/ha, Postemergence, scale 0 to 10, 0 is no effect, 10 is complete control
[7] = Rate 500 g/ha, Postemergence, scale 0 to 10, 0 is no effect, 10 is complete control
[8] = Rate 500 g/ha, Preemergence, scale 0 to 10 (0 no effect, 10 complete control)

In the case of `COC1CCC(Cn2c(=O)on(C(=O)N(c3ccc(Cl)cc3)C(C)C)c2=O)=NO1` (stereo not drawn) [Compound 760], the “Plant response rating, Nutsedge” value (purple nutsedge; [1]) is reported as 0, the “Nutsedge plant response rating” value (purple nutsedge; [2]) is reported as 0 and the “Plant response rating, Nutsedge” value (purple nutsedge; [3]) is reported as 0. The “Nutsedge plant response rating” value (purple nutsedge; [4]) was 0, the “Nutsedge plant response rating” value (purple nutsedge; [5]) was 0 and the “Nutsedge plant response rating” value (purple nutsedge; [6]) was 0. For the same molecule, the “Nutsedge plant response rating” value (purple nutsedge; [7]) was 0, the “Nutsedge plant response rating” value (purple nutsedge; [8]) was 0 and the “Plant response rating, Soybean” value (soybean; [1]) was 4. For the same molecule, the “Plant response rating, Soybean” value (soybean; [3]) was 0, the “Soybean plant response rating” value (soybean; [4]) was 0 and the “Soybean plant response rating” value (soybean; [5]) was 0. For the same molecule, the “Soybean plant response rating” value (soybean; [6]) was 4, the “Soybean plant response rating” value (soybean; [7]) was 5 and the “Soybean plant response rating” value (soybean; [8]) was 0. The “Plant response rating, Bedstraw” value (bedstraw; Rate 125 g/ha, scale of 0 to 10 where 0 is no effect and 10 is complete control) was 0, the “Bedstraw plant response rating” value (bedstraw; Rate 250 g/ha, scale 0 (no effect) to 10 (complete control)) was 0 and the “Bedstraw plant response rating” value (bedstraw; Rate 62 g/ha, scale 0 to 10) was 0. For the same molecule, the “Bedstraw plant response rating” value (bedstraw; Rate 500 g/ha, scale 0 to 10 (0 no effect, 10 complete control)) was 6, the “Plant response rating, Giant foxtail” value (giant foxtail; [1]) was 0 and the “Giant foxtail plant response rating” value (giant foxtail; [2]) was 7. For the same molecule, the “Plant response rating, Giant foxtail” value (giant foxtail; [3]) was 9, the “Giant foxtail plant response rating” value (giant foxtail; [4]) was 10 and the “Giant foxtail plant response rating” value (giant foxtail; [5]) was 8. For the same molecule, the “Giant foxtail plant response rating” value (giant foxtail; [6]) was 7, the “Giant foxtail plant response rating” value (giant foxtail; [7]) was 7 and the “Giant foxtail plant response rating” value (giant foxtail; [8]) was 10. For the same molecule, the “Plant response rating, B. signalgrass” value (surinam grass; [1]) was 0, the “B. signalgrass plant response rating” value (surinam grass; [2]) was 0 and the “B. signalgrass plant response rating” value (surinam grass; Preemergence, Rate 62 g/ha, scale of 0 to 10 where 0 is no effect and 10 is complete control) was 2. For the same molecule, the “Plant response rating, B. signalgrass” value (surinam grass; [3]) was 3, the “B. signalgrass plant response rating” value (surinam grass; [4]) was 10 and the “B. signalgrass plant response rating” value (surinam grass; [6]) was 0. For the same molecule, the “B. signalgrass plant response rating” value (surinam grass; [7]) was 5, the “B. signalgrass plant response rating” value (surinam grass; [8]) was 10 and the “Plant response rating, Wheat” value (wheat; [1]) was 0. The “Plant response rating, Wheat” value (wheat; [3]) was 0, the “Wheat plant response rating” value (wheat; [4]) was 0 and the “Wheat plant response rating” value (wheat; [5]) was 0. For the same molecule, the “Wheat plant response rating” value (wheat; [6]) was 0, the “Wheat plant response rating” value (wheat; [7]) was 0 and the “Wheat plant response rating” value (wheat; [8]) was 3. The “Plant response rating, Sugarbeets” value (sugar beet; [1]) was 0, the “Plant response rating, Sugarbeets” value (sugar beet; [3]) was 3 and the “Sugarbeets plant response rating” value (sugar beet; [4]) was 3. The “Sugarbeets plant response rating” value (sugar beet; [5]) was 3, the “Sugarbeets plant response rating” value (sugar beet; [6]) was 0 and the “Sugarbeets plant response rating” value (sugar beet; [7]) was 0. The “Sugarbeets plant response rating” value (sugar beet; [8]) was 6, the “Plant response rating, Rape” value (rape; [1]) was 2 and the “Rape plant response rating” value (rape; [2]) was 1. The “Plant response rating, Rape” value (rape; [3]) was 0, the “Rape plant response rating” value (rape; [4]) was 2 and the “Rape plant response rating” value (rape; [5]) was 0. For the same molecule, the “Rape plant response rating” value (rape; [6]) was 2, the “Rape plant response rating” value (rape; [7]) was 5 and the “Rape plant response rating” value (rape; [8]) was 5. The “Plant response rating, Redroot pigweed” value (pigweed; [1]) was 0, the “Redroot pigweed plant response rating” value (pigweed; [2]) was 0 and the “Plant response rating, Redroot pigweed” value (pigweed; [3]) was 7. The “Redroot pigweed plant response rating” value (pigweed; [4]) was 9, the “Redroot pigweed plant response rating” value (pigweed; [5]) was 7 and the “Redroot pigweed plant response rating” value (pigweed; [6]) was 2. For the same molecule, the “Redroot pigweed plant response rating” value (pigweed; [7]) was 3, the “Redroot pigweed plant response rating” value (pigweed; [8]) was 9 and the “Plant response rating, Morningglory” value (morningglory; [1]) was 3. For the same molecule, the “Morningglory plant response rating” value (morningglory; [2]) was 3, the “Plant response rating, Morningglory” value (morningglory; [3]) was 0 and the “Morningglory plant response rating” value (morningglory; [4]) was 0. For the same molecule, the “Morningglory plant response rating” value (morningglory; [5]) was 0, the “Morningglory plant response rating” value (morningglory; [6]) was 3 and the “Morningglory plant response rating” value (morningglory; [7]) was 3. The “Morningglory plant response rating” value (morningglory; [8]) was 0, the “Plant response rating, Corn” value (corn; [1]) was 0 and the “Corn plant response rating” value (corn; [2]) was 0. The “Plant response rating, Corn” value (corn; [3]) was 0, the “Corn plant response rating” value (corn; [4]) was 0 and the “Corn plant response rating” value (corn; [5]) was 0. For the same molecule, the “Corn plant response rating” value (corn; [6]) was 1, the “Corn plant response rating” value (corn; [7]) was 1 and the “Corn plant response rating” value (corn; [8]) was 4. The “Plant response rating, Wild oats” value (wild oat; [1]) was 0, the “Plant response rating, Wild oats” value (wild oat; [3]) was 0 and the “Wild oats plant response rating” value (wild oat; [4]) was 2. For the same molecule, the “Wild oats plant response rating” value (wild oat; [5]) was 0, the “Wild oats plant response rating” value (wild oat; [6]) was 0 and the “Wild oats plant response rating” value (wild oat; [7]) was 4. For the same molecule, the “Wild oats plant response rating” value (wild oat; [8]) was 6, the “Plant response rating, Velvetleaf” value (velvetleaf; [1]) was 0 and the “Plant response rating, Velvetleaf” value (velvetleaf; [3]) was 0. For the same molecule, the “Velvetleaf plant response rating” value (velvetleaf; [4]) was 0, the “Velvetleaf plant response rating” value (velvetleaf; [5]) was 0 and the “Velvetleaf plant response rating” value (velvetleaf; [6]) was 0. For the same molecule, the “Velvetleaf plant response rating” value (velvetleaf; [7]) was 3, the “Velvetleaf plant response rating” value (velvetleaf; [8]) was 0 and the “Plant response rating, Crabgrass” value (crabgrass; [1]) was 5. The “Crabgrass plant response rating” value (crabgrass; [2]) was 6, the “Plant response rating, Crabgrass” value (crabgrass; [3]) was 7 and the “Crabgrass plant response rating” value (crabgrass; [4]) was 10. For the same molecule, the “Crabgrass plant response rating” value (crabgrass; [5]) was 2, the “Crabgrass plant response rating” value (crabgrass; [6]) was 9 and the “Crabgrass plant response rating” value (crabgrass; [8]) was 10. For the same molecule, the “Plant response rating, Blackgrass” value (blackgrass; [1]) was 0, the “Blackgrass plant response rating” value (blackgrass; [2]) was 0 and the “Plant response rating, Blackgrass” value (blackgrass; [3]) was 4. For the same molecule, the “Blackgrass plant response rating” value (blackgrass; [4]) was 6, the “Blackgrass plant response rating” value (blackgrass; [5]) was 0 and the “Blackgrass plant response rating” value (blackgrass; [6]) was 0. The “Blackgrass plant response rating” value (blackgrass; [7]) was 3, the “Blackgrass plant response rating” value (blackgrass; [8]) was 9 and the “Plant response rating, Cocklebur” value (cocklebur; [1]) was 0. For the same molecule, the “Cocklebur plant response rating” value (cocklebur; [2]) was 0, the “Cocklebur plant response rating” value (cocklebur; [4]) was 0 and the “Cocklebur plant response rating” value (cocklebur; [5]) was 0. For the same molecule, the “Cocklebur plant response rating” value (cocklebur; [6]) was 0, the “Cocklebur plant response rating” value (cocklebur; [7]) was 1 and the “Cocklebur plant response rating” value (cocklebur; [8]) was 0.
